Test results from patent US20090247532A1, “Crystalline polymorph of sitagliptin phosphate and its preparation” (Mae De Ltd., priority 2008, published 2009).
Read-outs that look alike come from different tables or passages of the source. Values belong to the molecule of their own block, whether it stands above or below them.

Assays:
[1] = cited from earlier work; for stability of the form (in words): as reported in US 2006/0287528 or US 2007/0021430; for conversion into crystalline sitagliptin phosphate monohydrate: US 2007/0021430
[2] = Stability studies of Form V bulk material and tablets on storage, stability-indicating HPLC; assay type: physicochemical; settings: bulk material
Procedure: The stability of Form V of sitagliptin phosphate bulk material and tablets is assessed by storing samples for up to 12 weeks at 25° C./60% RH or up to 3 weeks at 40° C./75% RH. Changes are monitored using a stability-indicating HPLC method. Results were calculated by normalized peak area (npa). Degradants are identified by comparison of their relative retention times against impurity standards.

[3] = Thermal phase stability of Form V on heating; assay type: physicochemical; settings: heating up to 41° C.
Description: Additionally, Form V has lower water content, good material flow characteristic and better chemical stability.

[4] = Solubility of sitagliptin phosphate in water and polar organic solvents; assay type: physicochemical
Description: In a preferred aspect, Form V of sitagliptin phosphate may be prepared by slurring starting material, crude or pure sitagliptin phosphate, anhydrate or solvate, which can be obtained according to the procedures described in U.S. patent application 2005/0032804 with a polar organic solvent or a mixture of two or more polar organic solvents under heat. The sitagliptin phosphate is soluble in water, but not soluble in polar organic solvents. The preferred polar organic solvent is methanol or acetone. The concentration of sitagliptin phosphate within the solution may range from about 0.1% by weight to the saturation point. This concentration will, of course, vary depending upon the temperature at which the co-solvent solution is held, with warmer temperatures generally allowing for the preparation of more concentrated solutions of sitagliptin phosphate. Preferably, the concentration (w/w %) of sitagliptin phosphate starting material in solution is about 0.5-15%, preferably about 1-10%, more preferably about 1.5-5%. The volume ratio of water to methanol or acetone is about 1:0.1-200, preferably about 1:2-30, more preferably about 1:3-10, most preferably about 1:4-6. […]

Structure (SMILES): N[C@@H](CC(=O)N1CCn2c(nnc2C(F)(F)F)C1)Cc1cc(F)c(F)cc1F.O=P(O)(O)O [Form I]
conversion on grinding or compaction ([1]; grinding or compaction, US 2006/0287528): can be converted into Form III

Structure (SMILES): N[C@@H](CC(=O)N1CCn2c(nnc2C(F)(F)F)C1)Cc1cc(F)c(F)cc1F.O=P(O)(O)O [ethanol solvate]
stability of the form (in words) [1]: not a stable form

Structure (SMILES): N[C@@H](CC(=O)N1CCn2c(nnc2C(F)(F)F)C1)Cc1cc(F)c(F)cc1F.O=P(O)(O)O [Form II]
stability of the form (in words) [1]: metastable
time to convert to anhydrous Form I or Form III or mixtures thereof ([1]; at about 45° C., US 2006/0287528): about 2 hours

time for which polymorph (phase) and chemical stability was demonstrated ([2]; elevated temperature and humidity (40° C./75%)): over 3 weeks
time stable with respect to polymorphic form (phase) stability and formation of known and unknown degradants ([2]; stored under normal conditions of temperature and humidity): over 3 months
phase transformation on heating [3]: does not undergo a phase transformation
Structure (SMILES): N[C@@H](CC(=O)N1CCn2c(nnc2C(F)(F)F)C1)Cc1cc(F)c(F)cc1F.O=P(O)(O)O [Form V, (2R)-4-oxo-4-[3-(trifluoromethyl)-5,6-dihydro[1,2,4]triazolo[4,3-α]pyrazin-7(8H)yl]-1-(2,4,5-trifluorophenyl)butan-2-amine dihydrogenphosphate]

Structure (SMILES): N[C@@H](CC(=O)N1CCn2c(nnc2C(F)(F)F)C1)Cc1cc(F)c(F)cc1F.O=P(O)(O)O [Form III]
temperature below which the form is stable ([1]; US 2006/0287528): below 34 °C

Structure (SMILES): N[C@@H](CC(=O)N1CCn2c(nnc2C(F)(F)F)C1)Cc1cc(F)c(F)cc1F.O=P(O)(O)O [Form IV]
conversion into crystalline sitagliptin phosphate monohydrate ([1]; ambient conditions): slowly
stability of the form (in words) [1]: metastable
conversion into crystalline sitagliptin phosphate monohydrate ([1]; high relative humidity (98%) at room temperature): rapidly

solubility in polar organic solvents ([4]; polar organic solvents (e.g. methanol, acetone)): not soluble
solubility in water ([4]; water): soluble
Structure (SMILES): N[C@@H](CC(=O)N1CCn2c(nnc2C(F)(F)F)C1)Cc1cc(F)c(F)cc1F.O=P(O)(O)O [sitagliptin phosphate, dihydrogenphosphate salt of (2R)-4-oxo-4-[3-(trifluoromethyl)-5,6-dihydro[1,2,4]triazolo[4,3-α]pyrazin-7(8H)yl]-1-(2,4,5-trifluorophenyl)butan-2-amine]
